Data from patent publication US8450357B2, “Compositions comprising an aryl pyrazole and/or a formamidine, methods and uses thereof” (Merial Limited, priority 2008, dated 2013).

Test: Stability of amitraz in solution, aged at 50° C., HPLC
Assay type: physicochemical
Conditions: 28 % (w/v) Amitraz in Methyl isobutyl ketone (MIK)
Method: Formulation comprising amitraz in anisole (formulation L), butyl acetate (formulation M), methyl isobutyl ketone and ethyl benzoate were evaluated for stability by HPLC, similarly to the stability study for formulations comprising compound 1. Thus the formulations were tested for initial concentration of amitraz % (w/v) and aged at 50° C. for three months. The concentration of amitraz in each formulation was determined at 1 month, 2 months and 3 months to determine the stability of amitraz in each formulation.

Cc1ccc(/N=C/N(C)/C=N/c2ccc(C)cc2C)c(C)c1 [Amitraz, amitraz]
Amitraz % theoretical (1 month at 50° C.): 93 % theoretical | Amitraz % theoretical (2 months at 50° C.): 98 % theoretical | Amitraz % theoretical (3 months at 50° C.): 100 % theoretical
